Assay results from patent US20100035297A1, “METHODS AND COMPOSITIONS FOR VASCULOGENIC POTENTIAL DETERMINATION” (INDIANA UNIVERSITY RESEARCH AND TECHNOLOGY CORPORATION, priority 2008, published 2010).

Experiments:
Format in all cases: cell-based, human
[1] = system: vascular network formation by EC on ASC monolayer; assay: Vascular network formation (VNF) in EC-ASC co-culture; settings: 6 days
Experimental: Medium with the same supplements were exchange at day 3. At day 6, wells with the co-cultures were fixed with methanol, stained for human CD31 antigen; 5-9 pictures/well at 4× were taken under fluorescent microscope and were analyzed for total tube length and branch points.
Co-culture of EC and ASC: ASCs were plated on culture plastic at a density of 60×10^3 cells/cm^2 in EBM-2/5% FBS media. In most experiments, ASCs were allowed to attach to the plates for three hours and then ECs from the indicated sources were plated on the top of ASC monolayer at densities ranging from 625 to 10,000 cells/cm^2. Cells were cultured in EBM-2/5% FBS for six days with media change at day 3. In a separate set of experiments, ASCs at 60×10^3 cells/cm^2 and CBD-ECs at 5×10^3 cells/cm^2 were premixed in EBM-2/5% FBS prior to plating.
In experiments assessing the role of various factors on EC-ASC interactions, co-cultures were incubated for 6 days in EBM-2/5% FBS media supplemented with: (1) neutralizing IgGs to: VEGF (RnD Systems, 2 μg/ml), HGF (RnD Systems, 2 μg/ml) or corresponding control mouse and goat IgGs (RnD Systems); (2) 10 μM GM6001 (Millipore, Billerica, Mass.), an inhibitor of MMP activity with a wide range of activity; (3) 50 μM AG1296 (Alexis, San Diego, Calif.), an inhibitor of PDGF receptor β activity; (4) and DMSO, which was used to dilute GM6001 and AG1296, as a negative control. Test cultures were exposed to the varying media conditions for six days.
(§1) Co-culture of ECs on ASC, NHDF and smooth muscle cell monolayers: Either ASCs, NHDFs, CASMCs, or AoSMCs were plated at a density of 60×10^3 cells/cm^2 in EBM-2/5% FBS media, three hours prior to overlaying them with 5×10^3 cells/cm^2 of CBD-ECs as previously described. The mixed cultures were incubated for six days with a routine media change at day 3. In experiments evaluating the effect of ASC conditioned media (ASC-CM) or added growth factors on vascular network formation, cells were cultured in EBM-2/5% FBS media that was either premixed with ASC-CM at a 1:1 ratio or supplemented with VEGF or HGF (10 ng/ml) as single growth factor controls. To generate ASC-CM, ASCs were grown to confluence in EGM-2mv in T75 flasks, followed by media replacement with EBM-2/5% FBS. After one day, 10 ml fresh EBM-2/5% FBS media was applied and removed after 72 hours conditioning. ASC-CM was collected, centrifuged at 300 g for five minutes, and supernatants frozen at 80° C. Cell number at the time of media collection was determined using hemocytometer.

EC+CASMC co-culture = assay: VNF by ECs co-cultured on CASMC monolayer; settings: growth factor 10 ng/ml, 6 days; control 0.37±0.13
Experimental: as §1

EC+fibroblast co-culture = assay: VNF by ECs co-cultured on fibroblast (NHDF) monolayer; settings: growth factor 10 ng/ml, 6 days; control 0.54±0.1
Experimental: as §1

ASCs = assay: hASC mitogenic response to individual growth factors; settings: factor added to basal medium, 10 pg to 10 ng, 4 days
Experimental: Evaluation of hASC Mitogenic Response to Individual Growth Factors: Freshly isolated ASCs were adhered on cell culture plastic for 2 days before harvesting attached cells with 0.05% trypsin/EDTA. Cells were seeded at 3×10^3 cells/cm^2 in 12-well plates and allowed to attach overnight in EBM-2/5% FBS medium, which was then replaced with EBM-2/5% FBS alone (control) or EBM-2/5% FBS supplemented with basic fibroblast growth factor (bFGF), epidermal growth factor (EGF), or platelet-derived growth factor (PDGF)-BB individually at final concentrations of 10 pg, 100 pg, 1 ng, or 10 ng each or the mixture of all of these, each at the specified concentration. Cells were cultured for 4 days, with a medium change after 48 hours, and then detached using 0.05% trypsin/EDTA, and viable cells were counted using a hemacytometer and trypan blue. Proliferation data are presented as the ratio of cells per well supplemented with growth factor to cells per well in control media.

Compound | total tube length (EC+CASMC co-culture) | total tube length (EC+fibroblast co-culture) | effect on ASC proliferation (ASCs) | also measured
VEGF | 0.9±0.18 mm/mm^2 | 3.2±0.4 mm/mm^2 |  | increase of total tube length ([1]; EC-ASC co-culture, growth factor 10 ng/ml, vs control media): 76%
EGF: epidermal growth factor (NSDSECPLSHDGYCLHDGVCMYIEALDKYACNCVVGYIGERCQYRDLKWWELR; UniProt P01133 971-1023, looked up) |  |  | strong mitogenic effects | 
COc1cc2ncc(-c3ccccc3)nc2cc1OC [AG1296] |  |  |  | total tube length ([1]; 50 μM, DMSO control 5.29±0.31): 1.07±0.14 mm/mm^2; degree of network branching ([1]; 50 μM, DMSO control 5.88±0.67): 0.26±0.06 branches/mm^2
HGF: hepatocyte growth factor, single growth factor supplement | 0.74±0.21 mm/mm^2 | 1.0±0.02 mm/mm^2 |  | 
CNC(=O)[C@H](Cc1c[nH]c2ccccc12)NC(=O)[C@@H](CC(=O)NO)CC(C)C [GM6001] |  |  |  | total tubes length ([1]; 10 μM, DMSO control 4.24±0.31): 2.59±0.05 mm/mm^2; degree of network branching ([1]; 10 μM, DMSO control 5.86±0.79): 2.45±0.17 per mm^2
bFGF: basic fibroblast growth factor |  |  | strong mitogenic effects | 
